{"source": "patent US8952024B2", "about": "“Herbicidal pyrimidone derivatives” (E I du Pont de Nemours and Company, priority 2009, dated 2015)", "assay_in_all_cases": "Test B pre-/postemergence plant response", "assay_type_in_all_cases": "in vivo", "key": {"[1]": {"test_system": "Italian ryegrass (Lolium multiflorum)", "summary_of_the_method": "(§1)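 Response scores were assigned visually after 13 to 15 days in a greenhouse, comparing treated pots with controls on a 0–100 scale where 100 denotes complete control. Preemergence treatments went onto freshly seeded loam/sand soil; postemergence treatments onto plants 2 to 18 cm tall.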"}, "[2]": {"test_system": "Surinam grass (Brachiaria decumbens)", "summary_of_the_method": "as §1"}, "[3]": {"test_system": "blackgrass (Alopecurus myosuroides)", "summary_of_the_method": "as §1"}, "[4]": {"test_system": "corn (Zea mays)", "summary_of_the_method": "as §1"}, "[5]": {"test_system": "downy bromegrass (Bromus tectorum)", "summary_of_the_method": "as §1"}, "[6]": {"test_system": "giant foxtail (Setaria faberii)", "summary_of_the_method": "as §1"}, "[7]": {"test_system": "johnsongrass (Sorghum halepense)", "summary_of_the_method": "as §1"}, "[8]": {"test_system": "kochia (Kochia scoparia)", "summary_of_the_method": "as §1"}, "[9]": {"test_system": "pigweed (Amaranthus retroflexus)", "summary_of_the_method": "as §1"}, "[10]": {"test_system": "ragweed (common ragweed, Ambrosia elatior)", "summary_of_the_method": "as §1"}, "[11]": {"test_system": "soybean (Glycine max)", "summary_of_the_method": "as §1"}, "[12]": {"test_system": "velvetleaf (Abutilon theophrasti)", "summary_of_the_method": "as §1"}, "[13]": {"test_system": "woolly cupgrass (Eriochloa villosa)", "summary_of_the_method": "as §1"}, "[14]": {"details": "250 g ai/ha, Preemergence, 0 to 100 scale"}, "[15]": {"details": "Postemergence, 31 g ai/ha, scale 0 to 100 (0 no effect, 100 complete control)"}, "[16]": {"details": "Postemergence, 62 g ai/ha, scale 0 (no effect) to 100 (complete control), 13 to 15 days"}, "[17]": {"details": "Postemergence, 125 g ai/ha, visual rating after 13 to 15 days, scale 0 (no effect) to 100 (complete control)"}, "[18]": {"details": "Postemergence, 250 g ai/ha, scale 0 to 100"}, "[19]": {"details": "Preemergence, 31 g ai/ha, scale 0 to 100 (0 no effect, 100 complete control)"}, "[20]": {"details": "Preemergence, 62 g ai/ha, scale 0 to 100 (0 no effect, 100 complete control)"}, "[21]": {"details": "Preemergence, 125 g ai/ha, 0 to 100 scale"}}}
{"smiles": "Cc1ccccc1-n1c(-c2ccccc2)ncc(C(=O)C2=C(O)CCCC2=O)c1=O", "note": "[Compound 12]", "values": [{"measurement": "Plant response rating, Ryegrass, Italian", "setting": "[1]; [14]", "result": 0}, {"measurement": "Plant response rating, Ryegrass, Italian", "setting": "[1]; [15]", "result": 0}, {"measurement": "Plant response rating, Ryegrass, Italian", "setting": "[1]; [16]", "result": 0}, {"measurement": "Plant response rating, Ryegrass, Italian", "setting": "[1]; [17]", "result": 5}, {"measurement": "Ryegrass, Italian plant response rating", "setting": "[1]; [18]", "result": 5}, {"measurement": "Plant response rating, Ryegrass, Italian", "setting": "[1]; [19]", "result": 0}, {"measurement": "Plant response rating, Ryegrass, Italian", "setting": "[1]; [20]", "result": 0}, {"measurement": "Ryegrass, Italian plant response rating", "setting": "[1]; [21]", "result": 0}, {"measurement": "Plant response rating, Surinam Grass", "setting": "[2]; [14]", "result": 100}, {"measurement": "Plant response rating, Surinam Grass", "setting": "[2]; [15]", "result": 25}, {"measurement": "Plant response rating, Surinam Grass", "setting": "[2]; [16]", "result": 55}, {"measurement": "Plant response rating, Surinam Grass", "setting": "[2]; [17]", "result": 65}, {"measurement": "Surinam Grass plant response rating", "setting": "[2]; [18]", "result": 85}, {"measurement": "Plant response rating, Surinam Grass", "setting": "[2]; [19]", "result": 35}, {"measurement": "Plant response rating, Surinam Grass", "setting": "[2]; [20]", "result": 60}, {"measurement": "Surinam Grass plant response rating", "setting": "[2]; [21]", "result": 95}, {"measurement": "Plant response rating, Blackgrass", "setting": "[3]; [14]", "result": 10}, {"measurement": "Plant response rating, Blackgrass", "setting": "[3]; [15]", "result": 10}, {"measurement": "Plant response rating, Blackgrass", "setting": "[3]; [16]", "result": 10}, {"measurement": "Plant response rating, Blackgrass", "setting": "[3]; [17]", "result": 10}, {"measurement": "Blackgrass plant response rating", "setting": "[3]; [18]", "result": 20}, {"measurement": "Plant response rating, Blackgrass", "setting": "[3]; [19]", "result": 0}, {"measurement": "Plant response rating, Blackgrass", "setting": "[3]; [20]", "result": 0}, {"measurement": "Blackgrass plant response rating", "setting": "[3]; [21]", "result": 5}, {"measurement": "Plant response rating, Corn", "setting": "[4]; [14]", "result": 75}, {"measurement": "Plant response rating, Corn", "setting": "[4]; [15]", "result": 25}, {"measurement": "Plant response rating, Corn", "setting": "[4]; [16]", "result": 30}, {"measurement": "Plant response rating, Corn", "setting": "[4]; [17]", "result": 45}, {"measurement": "Corn plant response rating", "setting": "[4]; [18]", "result": 75}, {"measurement": "Plant response rating, Corn", "setting": "[4]; [19]", "result": 0}, {"measurement": "Plant response rating, Corn", "setting": "[4]; [20]", "result": 0}, {"measurement": "Corn plant response rating", "setting": "[4]; [21]", "result": 15}, {"measurement": "Plant response rating, Bromegrass, Downy", "setting": "[5]; [14]", "result": 0}, {"measurement": "Plant response rating, Bromegrass, Downy", "setting": "[5]; [15]", "result": 5}, {"measurement": "Plant response rating, Bromegrass, Downy", "setting": "[5]; [16]", "result": 10}, {"measurement": "Plant response rating, Bromegrass, Downy", "setting": "[5]; [17]", "result": 20}, {"measurement": "Bromegrass, Downy plant response rating", "setting": "[5]; [18]", "result": 20}, {"measurement": "Plant response rating, Bromegrass, Downy", "setting": "[5]; [19]", "result": 0}, {"measurement": "Plant response rating, Bromegrass, Downy", "setting": "[5]; [20]", "result": 0}, {"measurement": "Bromegrass, Downy plant response rating", "setting": "[5]; [21]", "result": 0}, {"measurement": "Plant response rating, Foxtail, Giant", "setting": "[6]; [14]", "result": 100}, {"measurement": "Plant response rating, Foxtail, Giant", "setting": "[6]; [15]", "result": 75}, {"measurement": "Plant response rating, Foxtail, Giant", "setting": "[6]; [16]", "result": 90}, {"measurement": "Plant response rating, Foxtail, Giant", "setting": "[6]; [17]", "result": 98}, {"measurement": "Foxtail, Giant plant response rating", "setting": "[6]; [18]", "result": 98}, {"measurement": "Plant response rating, Foxtail, Giant", "setting": "[6]; [19]", "result": 0}, {"measurement": "Plant response rating, Foxtail, Giant", "setting": "[6]; [20]", "result": 20}, {"measurement": "Foxtail, Giant plant response rating", "setting": "[6]; [21]", "result": 70}, {"measurement": "Plant response rating, Johnsongrass", "setting": "[7]; [14]", "result": 98}, {"measurement": "Plant response rating, Johnsongrass", "setting": "[7]; [15]", "result": 55}, {"measurement": "Plant response rating, Johnsongrass", "setting": "[7]; [16]", "result": 60}, {"measurement": "Plant response rating, Johnsongrass", "setting": "[7]; [17]", "result": 60}, {"measurement": "Johnsongrass plant response rating", "setting": "[7]; [18]", "result": 75}, {"measurement": "Plant response rating, Johnsongrass", "setting": "[7]; [19]", "result": 0}, {"measurement": "Plant response rating, Johnsongrass", "setting": "[7]; [20]", "result": 0}, {"measurement": "Johnsongrass plant response rating", "setting": "[7]; [21]", "result": 75}, {"measurement": "Plant response rating, Kochia", "setting": "[8]; [14]", "result": 100}, {"measurement": "Plant response rating, Kochia", "setting": "[8]; [15]", "result": 20}, {"measurement": "Plant response rating, Kochia", "setting": "[8]; [16]", "result": 20}, {"measurement": "Plant response rating, Kochia", "setting": "[8]; [17]", "result": 60}, {"measurement": "Kochia plant response rating", "setting": "[8]; [18]", "result": 65}, {"measurement": "Plant response rating, Kochia", "setting": "[8]; [19]", "result": 15}, {"measurement": "Plant response rating, Kochia", "setting": "[8]; [20]", "result": 100}, {"measurement": "Kochia plant response rating", "setting": "[8]; [21]", "result": 100}, {"measurement": "Plant response rating, Pigweed", "setting": "[9]; [14]", "result": 100}, {"measurement": "Plant response rating, Pigweed", "setting": "[9]; [15]", "result": 95}, {"measurement": "Plant response rating, Pigweed", "setting": "[9]; [16]", "result": 95}, {"measurement": "Plant response rating, Pigweed", "setting": "[9]; [17]", "result": 98}, {"measurement": "Pigweed plant response rating", "setting": "[9]; [18]", "result": 100}, {"measurement": "Plant response rating, Pigweed", "setting": "[9]; [19]", "result": 100}, {"measurement": "Plant response rating, Pigweed", "setting": "[9]; [20]", "result": 100}, {"measurement": "Pigweed plant response rating", "setting": "[9]; [21]", "result": 100}, {"measurement": "Plant response rating, Ragweed", "setting": "[10]; [14]", "result": 100}, {"measurement": "Plant response rating, Ragweed", "setting": "[10]; [15]", "result": 100}, {"measurement": "Plant response rating, Ragweed", "setting": "[10]; [16]", "result": 100}, {"measurement": "Plant response rating, Ragweed", "setting": "[10]; [17]", "result": 100}, {"measurement": "Ragweed plant response rating", "setting": "[10]; [18]", "result": 100}, {"measurement": "Plant response rating, Ragweed", "setting": "[10]; [19]", "result": 90}, {"measurement": "Plant response rating, Ragweed", "setting": "[10]; [20]", "result": 98}, {"measurement": "Ragweed plant response rating", "setting": "[10]; [21]", "result": 100}, {"measurement": "Plant response rating, Soybean", "setting": "[11]; [14]", "result": 95}, {"measurement": "Plant response rating, Soybean", "setting": "[11]; [15]", "result": 98}, {"measurement": "Plant response rating, Soybean", "setting": "[11]; [16]", "result": 100}, {"measurement": "Plant response rating, Soybean", "setting": "[11]; [17]", "result": 100}, {"measurement": "Soybean plant response rating", "setting": "[11]; [18]", "result": 100}, {"measurement": "Plant response rating, Soybean", "setting": "[11]; [19]", "result": 60}, {"measurement": "Plant response rating, Soybean", "setting": "[11]; [20]", "result": 65}, {"measurement": "Soybean plant response rating", "setting": "[11]; [21]", "result": 80}, {"measurement": "Plant response rating, Velvetleaf", "setting": "[12]; [14]", "result": 100}, {"measurement": "Plant response rating, Velvetleaf", "setting": "[12]; [15]", "result": 80}, {"measurement": "Plant response rating, Velvetleaf", "setting": "[12]; [16]", "result": 85}, {"measurement": "Plant response rating, Velvetleaf", "setting": "[12]; [17]", "result": 98}, {"measurement": "Velvetleaf plant response rating", "setting": "[12]; [18]", "result": 100}, {"measurement": "Plant response rating, Velvetleaf", "setting": "[12]; [19]", "result": 90}, {"measurement": "Plant response rating, Velvetleaf", "setting": "[12]; [20]", "result": 100}, {"measurement": "Velvetleaf plant response rating", "setting": "[12]; [21]", "result": 100}, {"measurement": "Plant response rating, Cupgrass, Woolly", "setting": "[13]; [14]", "result": 85}, {"measurement": "Plant response rating, Cupgrass, Woolly", "setting": "[13]; [15]", "result": 55}, {"measurement": "Plant response rating, Cupgrass, Woolly", "setting": "[13]; [16]", "result": 60}, {"measurement": "Plant response rating, Cupgrass, Woolly", "setting": "[13]; [17]", "result": 70}, {"measurement": "Cupgrass, Woolly plant response rating", "setting": "[13]; [18]", "result": 80}, {"measurement": "Plant response rating, Cupgrass, Woolly", "setting": "[13]; [19]", "result": 0}, {"measurement": "Plant response rating, Cupgrass, Woolly", "setting": "[13]; [20]", "result": 10}, {"measurement": "Cupgrass, Woolly plant response rating", "setting": "[13]; [21]", "result": 75}]}
